Data reported in patent US20230233569A1 (Revolution Medicines, Inc., priority 2020, published 2023).
Where two headings read alike, the source gives them in different places.

Tests used:
Test in all cases: Disruption of BRAF RBD interaction with Ras (FRET / MOA assay, with Cyclophilin A)
Assay type in all cases: biochemical
KRAS G12C = KRAS G12C (Homo sapiens, UniProt P01116+P62937, G12C)
Description: (§1) This protocol may also be executed substituting other Ras proteins or nucleotides.
(§2) The purpose of this biochemical assay was to measure the ability of test compounds to facilitate ternary complex formation between a nucleotide-loaded K-Ras isoform and Cyclophilin A; the resulting ternary complex disrupts binding to a BRAF^RBD construct, inhibiting K-Ras signaling through a RAF effector. Data is reported as IC50 values.
(§3) Compound was present in plate wells as a 10-point 3-fold dilution series starting at a final concentration of 30 μM. After incubation at 25° C. for 3 hours, a mixture of Anti-His Eu-W1024 and anti-GST allophycocyanin was then added to assay sample wells at final concentrations of 10 nM and 50 nM, respectively, and the reaction incubated for an additional 1.5 hours. […] Compounds that facilitate disruption of a K-Ras:RAF complex were identified as those eliciting a decrease in the TR-FRET ratio relative to DMSO control wells.
as §2, with “BRAF^RBDD” for “BRAF^RBD”

KRAS G12D = KRAS G12D (Homo sapiens, UniProt P01116+P62937, G12D); settings: read-out: KRAS G12D FRET data, IC50
KRAS G12D, sequence (P01116 1-169 isoform P01116-2 G12D limits assumed): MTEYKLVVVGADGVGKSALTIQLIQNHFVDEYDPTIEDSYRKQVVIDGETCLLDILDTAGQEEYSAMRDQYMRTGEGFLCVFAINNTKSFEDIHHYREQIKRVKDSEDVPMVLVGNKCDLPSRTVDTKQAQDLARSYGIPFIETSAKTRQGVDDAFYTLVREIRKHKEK
KRAS G12D, sequence (P62937 whole entry): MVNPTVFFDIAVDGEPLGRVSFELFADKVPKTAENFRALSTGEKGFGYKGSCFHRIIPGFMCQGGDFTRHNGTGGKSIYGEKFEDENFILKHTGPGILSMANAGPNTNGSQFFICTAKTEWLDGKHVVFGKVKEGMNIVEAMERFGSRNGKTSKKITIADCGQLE
Description: as §1, §2, §3
as §2, with “BRAF^RBDD” for “BRAF^RBD”

NRAS G12C = NRAS G12C (Homo sapiens, UniProt P01111+P62937, G12C); settings: NRAS G12C; read-out: NRAS G12C FRET data IC50
NRAS G12C, sequence (P01111 whole entry G12C): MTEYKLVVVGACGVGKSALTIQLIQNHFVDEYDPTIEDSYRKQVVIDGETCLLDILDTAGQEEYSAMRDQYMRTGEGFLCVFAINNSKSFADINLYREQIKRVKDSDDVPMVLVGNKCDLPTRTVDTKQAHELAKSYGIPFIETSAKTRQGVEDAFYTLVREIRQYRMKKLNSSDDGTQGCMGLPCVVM
NRAS G12C, sequence (P62937 whole entry): as the sequence (P62937 whole entry) above
Description: as §1, §2, §3
as §2, with “BRAF^RBDD” for “BRAF^RBD”

KRAS G12S = KRAS G12S (Homo sapiens, UniProt P01116+P62937, G12S); settings: read-out: KRAS G12S FRET data, IC50
KRAS G12S, sequence (P01116 1-169 isoform P01116-2 G12S limits assumed): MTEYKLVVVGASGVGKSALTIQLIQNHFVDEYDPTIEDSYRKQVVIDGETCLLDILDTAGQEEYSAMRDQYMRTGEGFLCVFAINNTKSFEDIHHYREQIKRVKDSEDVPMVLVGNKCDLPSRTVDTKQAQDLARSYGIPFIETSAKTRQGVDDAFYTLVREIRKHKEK
KRAS G12S, sequence (P62937 whole entry): as the sequence (P62937 whole entry) above
Description: as §1, §2, §3
as §2, with “BRAF^RBDD” for “BRAF^RBD”

KRAS G12V = KRAS G12V (Homo sapiens, UniProt P01116+P62937, G12V); settings: KRAS G12V; read-out: KRAS G12V FRET data IC50
KRAS G12V, sequence (P01116 1-169 isoform P01116-2 G12V limits assumed): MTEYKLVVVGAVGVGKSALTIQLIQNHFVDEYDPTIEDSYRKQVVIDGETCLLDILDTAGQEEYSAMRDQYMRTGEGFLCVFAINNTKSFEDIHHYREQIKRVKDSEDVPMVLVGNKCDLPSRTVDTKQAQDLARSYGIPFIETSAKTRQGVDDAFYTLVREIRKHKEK
KRAS G12V, sequence (P62937 whole entry): as the sequence (P62937 whole entry) above
Description: as §1, §2, §3
as §2, with “BRAF^RBDD” for “BRAF^RBD”

KRAS G13C = KRAS G13C (Homo sapiens, UniProt P01116+P62937, G13C)
KRAS G13C, sequence (P01116 1-169 isoform P01116-2 G13C): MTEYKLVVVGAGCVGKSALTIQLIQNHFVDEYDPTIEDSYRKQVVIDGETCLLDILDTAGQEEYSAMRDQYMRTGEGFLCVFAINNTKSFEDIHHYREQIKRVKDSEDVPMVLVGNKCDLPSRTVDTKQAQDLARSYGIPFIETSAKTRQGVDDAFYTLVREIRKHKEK
KRAS G13C, sequence (P62937 whole entry): as the sequence (P62937 whole entry) above
Description: as §1, §2, §3
as §2, with “BRAF^RBDD” for “BRAF^RBD”

KRAS G13D = KRAS G13D (Homo sapiens, UniProt P01116+P62937, G13D); settings: KRAS G13D; read-out: KRAS G13D FRET data IC50
KRAS G13D, sequence (P01116 1-169 isoform P01116-2 G13D limits assumed): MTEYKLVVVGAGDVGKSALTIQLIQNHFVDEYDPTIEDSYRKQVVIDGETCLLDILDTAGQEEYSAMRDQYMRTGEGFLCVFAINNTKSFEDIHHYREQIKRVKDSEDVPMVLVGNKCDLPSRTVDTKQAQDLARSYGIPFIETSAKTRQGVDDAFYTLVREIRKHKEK
KRAS G13D, sequence (P62937 whole entry): as the sequence (P62937 whole entry) above
Description: as §1, §2, §3
as §2, with “BRAF^RBDD” for “BRAF^RBD”

KRAS WT = KRAS WT (Homo sapiens, UniProt P01116+P62937); settings: KRAS WT; read-out: KRAS WT FRET data IC50
KRAS WT, sequence (P01116 1-169 isoform P01116-2 limits assumed): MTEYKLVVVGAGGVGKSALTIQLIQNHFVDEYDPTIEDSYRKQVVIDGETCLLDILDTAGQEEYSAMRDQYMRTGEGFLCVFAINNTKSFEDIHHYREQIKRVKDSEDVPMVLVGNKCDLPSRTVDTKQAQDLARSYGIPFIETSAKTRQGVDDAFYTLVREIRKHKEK
KRAS WT, sequence (P62937 whole entry): as the sequence (P62937 whole entry) above
Description: as §1, §2, §3
as §2, with “BRAF^RBDD” for “BRAF^RBD”

[1] = KRAS G12C, read-out: KRAS G12C FRET data IC50
[2] = read-out: KRAS G12C FRET data, IC50
[3] = read-out: KRAS G13C FRET data, IC50
[4] = KRAS G13C, read-out: KRAS G13C FRET data IC50

KRAS G12C, sequence (P01116 1-169 isoform P01116-2 G12C): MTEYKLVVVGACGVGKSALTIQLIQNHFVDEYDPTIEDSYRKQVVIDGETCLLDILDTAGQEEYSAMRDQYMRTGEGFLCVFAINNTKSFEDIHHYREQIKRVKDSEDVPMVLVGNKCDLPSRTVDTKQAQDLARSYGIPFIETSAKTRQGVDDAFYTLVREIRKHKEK
KRAS G12C, sequence (P62937 whole entry): as the sequence (P62937 whole entry) above

Row | Structure (SMILES) | IC50 (KRAS G12C; [1]) [nM] | IC50 (KRAS G12D) [nM] | IC50 (NRAS G12C) [nM] | IC50 (KRAS G12S) [nM] | IC50 (KRAS G12V) [nM] | IC50 (KRAS G13C; [3]) [nM] | IC50 (KRAS G13D) [nM] | IC50 (KRAS WT) [nM] | IC50 (KRAS G13C; [4]) [nM] | IC50 (KRAS G12C; [2]) [nM]
1 | CCC(=O)N1CC[C@H](C(=O)N(C)[C@H](C(=O)N[C@H]2Cc3cc(O)cc(c3)-c3ccc4c(c3)c(c(-c3ccccc3CCOC)n4CC)CC(C)(C)COC(=O)[C@@H]3CCCN(N3)C2=O)C(C)C)C1 [Example A34] |  |  |  | 1000 to 10000 | 1000 to 10000 | 1000 to 10000 | 1000 to 10000 | 1000 to 10000 |  | 100 to 1000
2 | CCn1c(-c2cccnc2[C@H](C)OC)c2c3cc(ccc31)-c1cc(C#N)cc(c1)C[C@H](NC(=O)[C@H](C(C)C)N(C)C(C)=O)C(=O)N1CCC[C@H](N1)C(=O)OCC(C)(C)C2 (atropisomer, axis not shown) [Example A430] |  | > 10000 | > 10000 | > 10000 | > 10000 | > 10000 | > 10000 | > 10000 |  | > 10000
3 | CCn1c(-c2cccnc2[C@H](C)OC)c2c3cc(ccc31)-c1cc(O)cc(c1)C[C@H](NS(=O)(=O)CC1CC1)C(=O)N1CCC[C@H](N1)C(=O)OCC(C)(C)C2 [Example A200] |  |  | > 10000 |  |  | > 10000 |  | > 10000 |  | 
4 | CCn1c(-c2cccnc2[C@H](C)OC)c2c3cc(ccc31)-c1cc(O)cc(c1)C[C@H](NS(=O)(=O)c1cn(C)c(C)n1)C(=O)N1CCC[C@H](N1)C(=O)OCC(C)(C)C2 [Example A197] |  |  | > 10000 |  |  | > 10000 |  | > 10000 |  | 
5 | C=CC(=O)N1CC(OC[C@H](C(=O)N[C@H]2Cc3cccc(c3)-c3ccc4c(c3)c(c(-c3cccnc3[C@H](C)OC)n4CC)CC(C)(C)COC(=O)[C@@H]3CCCN(N3)C2=O)C(C)C)C1 (racemic) [Example A484] |  |  | 1000 to 10000 |  | > 10000 |  |  | > 10000 |  | 

The next lines start with results.

Row | IC50 (KRAS G12C; [1]) [nM] | IC50 (KRAS G12D) [nM] | IC50 (NRAS G12C) [nM] | IC50 (KRAS G12S) [nM] | IC50 (KRAS G12V) [nM] | IC50 (KRAS G13C; [3]) [nM] | IC50 (KRAS G13D) [nM] | IC50 (KRAS WT) [nM] | IC50 (KRAS G13C; [4]) [nM] | Structure (SMILES) | IC50 (KRAS G12C; [2]) [nM]
6 | < 10 | > 10000 | < 10 |  |  |  |  |  |  | CCn1c(-c2cccnc2COC)c2c3cc(ccc31)-c1cc(O)cc(c1)C[C@H](NC(=O)[C@H](C(C)C)N(C)C(=O)[C@H]1CCN(C(=O)C#CCN3CCOCC3)C1)C(=O)N1CCC[C@H](N1)C(=O)OCC(C)(C)C2 [Example A095] | 
7 | 10 to 100 | > 10000 | 10 to 100 | 1000 to 10000 | 100 to 1000 |  | 1000 to 10000 | 100 to 1000 | 10 to 100 | C=CS(=O)(=O)N1CC[C@H](C(=O)N(C)[C@H](C(=O)N[C@H]2Cc3cc(O)cc(c3)-c3ccc4c(c3)c(c(-c3cccnc3COC)n4CC)CC(C)(C)COC(=O)[C@@H]3CCCN(N3)C2=O)C(C)C)C1 [Example A069] | 
8 | 100 to 1000 | > 10000 | 100 to 1000 | > 10000 | > 10000 |  | > 10000 | > 10000 | > 10000 | C=CC(=O)N1CC[C@H](C(=O)N(C)[C@H](C(=O)N[C@H]2Cc3nc(cs3)-c3ccc4c(c3)c(c(-c3cccnc3COC)n4CC)CC(C)(C)COC(=O)[C@@H]3CCCN(N3)C2=O)C(C)C)C1 [Example A094] | 
9 |  |  |  |  |  |  | > 10000 |  |  | CCn1c(-c2cccnc2[C@H](C)OC)c2c3cc(ccc31)-c1csc(n1)C[C@H](NC(=O)[C@H](C(C)C)N(C)C(=O)N1CC3(CCCN(C)C3=O)C1)C(=O)N1CCC[C@H](N1)C(=O)OCC(C)(C)C2 [Example A453] | 
10 | 10 to 100 | 100 to 1000 |  | 10 to 100 | 10 to 100 |  | 100 to 1000 | 100 to 1000 | 100 to 1000 | C=CC(=O)N1CC[C@H](C(=O)N(C)[C@H](C(=O)N[C@H]2Cc3cc(O)cc(c3)-c3ccc4c(c3)c(c(-c3cnccc3COC)n4CC)CC(C)(C)COC(=O)[C@@H]3CCCN(N3)C2=O)C(C)C)C1 [Examples A028] | 
